Source: patent US7125902B2, “Methods, compounds, and diagnostics for cancer treatment” (priority 2004, dated 2006)

What was measured:
[1] = tested on: C6 (Rat Glialtumor Cell or CCL-107) Cell Line; assay: MTT colorimetric assay for cellular viability on C6 cells; format: cell-based; details: 48-h incubation
Protocol: Cell lines (C6 and Hep G2) were obtained from the Bioresource Collection and Research Center. All cell culture media and supplements were purchased from Invitrogen, Co. (GIBCO™, Gland Island, N.Y.) unless otherwise specified. All cells were grown in a humid atmosphere of 95% air and 5% CO2 at 37° C. Cell lines were maintained under standard conditions in culture media recommended by the American Type Culture Collection (ATCC), unless otherwise specified. C6 cells were grown in 82.5% Ham's F-10 medium, 15% horse serum and 2.5% FBS. Hep G2 were cultured in 90% MEM (Eagle) with non-essential amino acids and Earle's BSS amd 10% FBS.
All compounds were tested for inhibition of anchorage-dependent tumor cell growth using MTT assay. All compounds were individually solubilized in DMSO and diluted into appropriate growth medium at 2-fold desired final assay concentration. In assays, cells were seeded into 96-well plates and allowed to adhere for 24 h before drugs were introduced. Following a 48-h incubation, compounds and medium were removed by flicking, and each well was treated with 100 μl of 500 μg/ml MTT [3-(4,5-dimethylthiazol-2-yl)-2,5-diphenyltetrazolium bromide] in culture medium. Following a 4-h incubation period to allow metabolism of MTT by mitochondrial dehydrogenases of viable cells to form an insoluble formazan product, the crystals were dissolved in 100 μL of acid-SDS (0.01 N HCl in 10% SDS) by incubating the plate overnight. Absorbance, as a measure of cell viability, was read the following day in an ELISA plate reader at a wavelength of 550 nm. IC50 values were obtained by a linear regression analysis of percentage absorbance vs. log drug concentration.

Male ICR mice = assay: Acute toxicity study, determination of LD50 values; format: in vivo; details: for Survival at 2,000 mg/Kg / LD50: male ICR mice; for Survival at 2,000 mg/Kg: i.p., 2,000 mg/Kg, three-day observation; for LD50: single intraperitoneal injection, observed for three days; for Acute symptoms observed: mouse, in vivo, ip
Protocol: (§1) Leflunomide, its metabolite (A77 1726), and several isoxazole derivatives were chosen for the acute toxicity study. Male ICR mice were used for the intraperitoneal injection of each compound at different doses according to the following procedure: Small male ICR mice are chosen, each weighing 17–23 grams. They are equally classified at random into individual groups, 3–5 mice per group. A predetermined dose of each selected compound in minimum DMSO/liquid paraffin is injected once intraperitoneally to mice in each group. Toxic reaction is observed for three days, then the acute half lethal dose (LD50) is determined.

[2] = tested on: HT29 (adenocarcinoma of the colon); assay: SRB cell proliferation assay on HT-29 cells; format: cell-based, human; details: for Cell viability, Reading (avg of 3): HT-29, SRB reading at 515 nm, 5d exposure
Protocol: The cell lines used were HT29 (adenocarcinoma of the colon). The tumor cells were grown at 37° C. in a humidified atmosphere (5% CO2) as monolayer cultures in RPMI 1640 medium supplemented with 10% FCS. Cells were trypsinized upon passage and maintained routinely.
UTL-5b and UTL-5 were dissolved in DMSO as 4 mM stock solutions and then further diluted in 1% carboxymethyl cellulose.
The SRB assay is routinely employed to measure cell proliferation by the US-NCI 60 cell line screen. Exponentially growing cells were harvested by trypsination, counted and seeded into 96 well plates (2.000 cells/well). […] Total protein mass was determined after 5d of continuous drug exposure by addition of Sulforhodamine B (0.4%) solution. Readings were read at 515 nm, as cell viability, and IC50 values were estimated based on the results.

[3] = Acute toxicity study, determination of LD50 values; format: in vivo; details: male, ICR, mouse, in vivo, ip
Protocol: as §1

| Structure (SMILES) | IC50 [1] | LD50 (Male ICR mice) | Acute symptoms observed (Male ICR mice) | further results |
| --- | --- | --- | --- | --- |
| Cc1cc(C(=O)Nc2ccc(F)cc2)no1 [UTL-5k] | > 1000 µM | – | – | – |
| Cc1cc(C(=O)Nc2ccccc2)no1 [UTL-5a] | 1.37 µM | >2,000 mg/Kg | agitation | Survival at 2,000 mg/Kg (Male ICR mice): all mice were alive |
| Cc1cc(C(=O)Nc2ccc(C(=O)O)cc2)no1 [UTL-5j] | 0.19 µM | >2,000 mg/Kg | agitation | Survival at 2,000 mg/Kg (Male ICR mice): all mice were alive |
| Cc1cc(C(=O)Nc2ccc(Cl)cc2)no1 [UTL-5d] | 0.81 µM | 1,800 mg/Kg | – | Activity in human colon cancer cell line HT29 (in words) ([2]; HT29, SRB assay): very good activity; Cell viability, Reading (avg of 3) ([2]; Conc. 0.001 μM): 1.238; Cell viability, Reading (avg of 3) ([2]; Conc. 0.002 μM): 1.014; Cell viability, Reading (avg of 3) ([2]; Conc. 0.01 μM): 0.886; Cell viability, Reading (avg of 3) ([2]; Conc. 0.05 μM): 0.914; Cell viability, Reading (avg of 3) ([2]; Conc. 0.1 μM): 0.864; Cell viability, Reading (avg of 3) ([2]; Conc. 0.5 μM): 0.893; Cell viability, Reading (avg of 3) ([2]; Conc. 1 μM): 0.436; Cell viability, Reading (avg of 3) ([2]; Conc. 10 μM): 0.314; Cell viability, Reading (avg of 3) ([2]; Conc. 50 μM): 0.164; Cell viability, Reading (avg of 3) ([2]; Conc. 100 μM): 0.13; IC50 ([2]; HT-29 cells, SRB assay, 5d continuous exposure, estimated from readings): 0.7 µM |
| COc1ccc(NC(=O)c2cc(C)on2)cc1 [UTL-5h] | 0.35 µM | – | – | – |
| Cc1cc(C(=O)Nc2ccc(C(F)(F)F)cc2)no1 [UTL-5f] | 0.17 µM | – | – | – |
| COc1cc(NC(=O)c2cc(C)on2)cc(OC)c1OC [UTL-5i] | 1.18 µM | – | – | – |
| Cc1oncc1C(=O)Nc1ccc(C(F)(F)F)cc1 [Leflunomide, N-(4-trifluoromethylphenyl)-4-carboxamidyl-5-methylisoxazole, reference compound] | – | – | Cyanosis and deep necrosis | IC50 ([1]; Rattus norvegicus): 0.162 µM; LD50 at 3 days [3]: 250 mg/kg |
| Cc1cc(C(=O)Nc2cccc(Cl)c2)no1 [UTL-5c] | 0.163 µM | – | – | – |
| Cc1cc(C(=O)Nc2ccc(Cl)cc2Cl)no1 [UTL-5g] | 0.18 µM | >2,000 mg/Kg | agitation | Survival at 2,000 mg/Kg (Male ICR mice): all mice were alive |
| CCOC(=O)CC[C@H](NC(=O)c1ccc(NC(=O)c2cc(C)on2)cc1)C(=O)OCC [UTL-5l] | 0.16 µM | – | – | – |
| Cc1cc(C(=O)Nc2cccc(C(F)(F)F)c2)no1 [UTL-5e] | 0.2 µM | – | – | – |
| C/C(O)=C(\C#N)C(=O)Nc1ccc(C(F)(F)F)cc1 [A77 1726, reference compound] | 0.159 µM | 200 mg/kg | Cyanosis and deep necrosis | – |
